Measurements as given in US20180194762A1 (Pharmacyclics LLC, priority 2017, published 2018).

Legend:
Assay type in all cases: biochemical
Btk = molecular target: T1, Btk (Homo sapiens, UniProt Q06187); assay: Btk in vitro inhibitory activity (one of Method A TR-FRET, Method B electrophoretic mobility shift, Method C radiometric filter binding); details: wild-type Btk; read-out: Btk-WT IC50
T1 construct: purified from insect cells as a full-length construct containing a N-terminal 6X-His tag; His6 (N); made in house; host or cells: insect cells (Method C)
T1 sequence (Q06187 whole entry): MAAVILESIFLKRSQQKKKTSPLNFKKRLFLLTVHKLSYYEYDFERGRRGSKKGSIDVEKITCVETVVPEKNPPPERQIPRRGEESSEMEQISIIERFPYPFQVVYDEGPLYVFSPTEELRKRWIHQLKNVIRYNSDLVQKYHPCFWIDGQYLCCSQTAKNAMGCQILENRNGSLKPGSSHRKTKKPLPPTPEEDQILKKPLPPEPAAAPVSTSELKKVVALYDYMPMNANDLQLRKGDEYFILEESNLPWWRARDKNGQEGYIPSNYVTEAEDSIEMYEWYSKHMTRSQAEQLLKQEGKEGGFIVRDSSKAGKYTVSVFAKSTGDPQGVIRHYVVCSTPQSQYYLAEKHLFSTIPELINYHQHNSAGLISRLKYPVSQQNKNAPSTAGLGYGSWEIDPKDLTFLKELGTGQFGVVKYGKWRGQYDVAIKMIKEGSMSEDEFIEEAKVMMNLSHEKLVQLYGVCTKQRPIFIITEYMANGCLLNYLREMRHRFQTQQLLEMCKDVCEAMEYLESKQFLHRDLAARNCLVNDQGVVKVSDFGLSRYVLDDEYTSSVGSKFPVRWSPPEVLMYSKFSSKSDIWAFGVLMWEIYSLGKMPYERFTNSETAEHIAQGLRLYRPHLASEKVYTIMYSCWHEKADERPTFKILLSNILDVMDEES
Outline: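 Method A: TR-FRET with 0.5 nM Btk at [ATP]=Km, EDTA-quenched, 665/615 nm ratio; Ki(app) converted to IC50. Method B: 1 nM full-length His6 human BTK, 1 μM FAM peptide, pH 7.5, mobility-shift product/sum ratio, 12-point 4-parameter fit. Method C: radiometric filter binding, 8 nM His-tagged BTK, 0.2 mg/mL poly-Glu-Tyr.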

TEC = molecular target: T2, TEC (Homo sapiens, UniProt P42680); assay: Inhibition of a panel of kinases (in vitro HotSpot kinase assay, 33P-ATP, 1 μM ATP); details: for IC50: HotSpot kinase assay, 1 μM ATP; for TEC/Btk: ratio of TEC IC50 to Btk IC50 (selectivity)
T2 sequence (P42680 1-631): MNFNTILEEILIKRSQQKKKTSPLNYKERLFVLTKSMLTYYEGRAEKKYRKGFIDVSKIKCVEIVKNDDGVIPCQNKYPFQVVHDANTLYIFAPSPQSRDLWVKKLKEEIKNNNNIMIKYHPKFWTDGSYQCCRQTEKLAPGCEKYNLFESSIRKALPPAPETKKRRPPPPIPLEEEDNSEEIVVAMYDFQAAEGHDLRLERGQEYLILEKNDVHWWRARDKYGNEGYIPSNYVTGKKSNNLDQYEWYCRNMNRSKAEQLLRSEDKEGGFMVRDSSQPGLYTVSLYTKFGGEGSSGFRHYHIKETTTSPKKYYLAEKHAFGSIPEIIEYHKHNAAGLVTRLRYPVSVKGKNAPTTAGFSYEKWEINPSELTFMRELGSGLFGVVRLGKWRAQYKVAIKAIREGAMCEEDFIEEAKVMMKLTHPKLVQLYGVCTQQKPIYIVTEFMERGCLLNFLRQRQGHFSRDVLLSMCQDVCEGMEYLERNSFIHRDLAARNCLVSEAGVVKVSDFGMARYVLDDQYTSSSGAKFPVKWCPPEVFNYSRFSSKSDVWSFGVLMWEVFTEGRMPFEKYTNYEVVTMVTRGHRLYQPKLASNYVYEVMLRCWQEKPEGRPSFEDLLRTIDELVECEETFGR
Outline: (§1)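 Purified kinase enzymes were incubated with an appropriate substrate and 33P-labelled ATP at 1 μM ATP. Inhibition was measured radiometrically from incorporation of the 33P label.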

panel of kinases = molecular target: T3, panel of kinases (Homo sapiens, UniProt P51813); assay: Inhibition of a panel of kinases (in vitro HotSpot kinase assay, 33P-ATP, 1 μM ATP), other kinases; details: BMX wild-type, read-out: BMX-WT IC50
T3 sequence (P51813 1-675): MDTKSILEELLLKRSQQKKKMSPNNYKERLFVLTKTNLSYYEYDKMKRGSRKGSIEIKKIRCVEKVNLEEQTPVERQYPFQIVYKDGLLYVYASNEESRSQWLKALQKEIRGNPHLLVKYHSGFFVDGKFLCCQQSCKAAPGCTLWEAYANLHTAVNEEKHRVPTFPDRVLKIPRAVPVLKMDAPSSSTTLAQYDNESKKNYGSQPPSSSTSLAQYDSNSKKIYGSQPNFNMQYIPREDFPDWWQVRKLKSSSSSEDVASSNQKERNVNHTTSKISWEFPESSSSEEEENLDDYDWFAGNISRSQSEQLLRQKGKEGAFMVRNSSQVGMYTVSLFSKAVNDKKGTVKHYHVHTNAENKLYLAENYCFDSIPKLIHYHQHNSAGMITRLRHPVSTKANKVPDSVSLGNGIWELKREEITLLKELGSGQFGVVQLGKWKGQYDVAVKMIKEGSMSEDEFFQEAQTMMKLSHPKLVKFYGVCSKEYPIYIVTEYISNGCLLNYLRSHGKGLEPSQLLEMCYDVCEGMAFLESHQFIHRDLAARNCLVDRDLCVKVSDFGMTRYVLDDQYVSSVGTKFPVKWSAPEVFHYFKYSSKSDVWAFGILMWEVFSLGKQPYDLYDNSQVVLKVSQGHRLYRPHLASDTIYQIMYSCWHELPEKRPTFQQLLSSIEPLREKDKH
Outline: as §1

SMILES | IC50 (Btk) [nM] | IC50 (TEC) [nM] | TEC/Btk (TEC) | IC50 (panel of kinases) [nM]
O=c1c2c(F)cc(C3CC3)cc2ccn1-c1cccc(-c2ccnc3[nH]nc(N[C@@H]4CCNC4)c23)c1CO [Compound 17, (R)-6-cyclopropyl-8-fluoro-2-(2-(hydroxymethyl)-3-(3-(pyrrolidin-3-ylamino)-1H-pyrazolo[3,4-b]pyridin-4-yl)phenyl)isoquinolin-1 (2H)-one] | 312 | 5920 | 19 | 6410
C=CC(=O)N1CC[C@@H](Nc2n[nH]c3nccc(-c4cccc(-n5ccc6cc(C7CC7)cc(F)c6c5=O)c4CO)c23)C1 [Compound 18, 6-cyclopropyl-8-fluoro-2-[2-(hydroxymethyl)-3-(3-{[(3R)-1-(prop-2-enoyl)pyrrolidin-3-yl]amino}-1H-pyrazolo[3,4-b]pyridin-4-yl)phenyl]-1,2-dihydroisoquinolin-1-one] | 1.69 | 40 | 23 | 73
CC(C)(C)CCC(=O)NCc1ccc(-c2ccnc3[nH]nc(N[C@H]4CC[C@H](O)CC4)c23)cc1F [Compound 19, N-{[2-fluoro-4-(3-{[(1r,4r)-4-hydroxycyclohexyl]amino}-1H-pyrazolo[3,4-b]pyridin-4-yl)phenyl]methyl}-4,4-dimethylpentanamide] | > 10000 | > 10000 | – | 7460
CCn1cc(C(=O)NCc2ccc(-c3ccnc4[nH]nc(N[C@H]5CC[C@H](O)CC5)c34)cc2F)cn1 [Compound 20, 1-ethyl-N-{[2-fluoro-4-(3-{[(1r,4r)-4-hydroxycyclohexyl]amino}-1H-pyrazolo[3,4-b]pyridin-4-yl)phenyl]methyl}-1H-pyrazole-4-carboxamide] | > 10000 | > 10000 | – | 5280
CC(C)(C)c1nc(C(=O)NCc2ccc(-c3ccnc4[nH]nc(N[C@H]5CC[C@H](O)CC5)c34)cc2F)no1 [Compound 21, 5-tert-butyl-N-{[2-fluoro-4-(3-{[(1r,4r)-4-hydroxycyclohexyl]amino}-1H-pyrazolo[3,4-b]pyridin-4-yl)phenyl]methyl}-1,2,4-oxadiazole-3-carboxamide] | 53.4 | 3170 | 59 | 4370
CC(C)(C)c1ccc(C(=O)NC2(c3ccc(-c4ccnc5[nH]nc(N[C@H]6CC[C@H](O)CC6)c45)cc3)CC2)cc1 [Compound 22, 4-tert-butyl-N-{1-[4-(3-{[(1r,4r)-4-hydroxycyclohexyl]amino}-1H-pyrazolo[3,4-b]pyridin-4-yl)phenyl]cyclopropyl}benzamide] | > 10000 | > 10000 | – | 6470
CC(C)(C)c1ccc(C(=O)NCc2ccc(-c3ccnc4[nH]nc(N[C@H]5CC[C@H](O)CC5)c34)cc2)cc1 [Compound 23, 4-tert-butyl-N-{[4-(3-{[(1r,4r)-4-hydroxycyclohexyl]amino}-1H-pyrazolo[3,4-b]pyridin-4-yl)phenyl]methyl}benzamide] | > 10000 | > 10000 | – | > 10000
CC#CC(=O)N1CC[C@@H](Nc2n[nH]c3nccc(-c4ccc(C5(NC(=O)c6noc(C(C)(C)C)n6)CC5)cc4)c23)C1 [Compound 28, (R)—N-(1-(4-(3-((1-(but-2-ynoyl)pyrrolidin-3-yl)amino)-1H-pyrazolo[3,4-b]pyridin-4-yl)phenyl)cyclopropyl)-5-(tert-butyl)-1,2,4-oxadiazole-3-carboxamide] | 0.575 | 200 | 347 | 71
CN(C)C/C=C/C(=O)N1CC[C@@H](Nc2n[nH]c3nccc(-c4ccc(C5(NC(=O)c6noc(C(C)(C)C)n6)CC5)cc4)c23)C1 [Compound 29, (R,E)-5-(tert-butyl)-N-(1-(4-(3-((1-(4-(dimethylamino)but-2-enoyl)pyrrolidin-3-yl)amino)-1H-pyrazolo[3,4-b]pyridin-4-yl)phenyl)cyclopropyl)-1,2,4-oxadiazole-3-carboxamide] | 11 | 964 | 88 | 595
CC1(C(=O)N2CC[C@@H](Nc3n[nH]c4nccc(-c5ccc(C6(NC(=O)c7noc(C(C)(C)C)n7)CC6)cc5)c34)C2)COC1 [Compound 30, (R)-5-(tert-butyl)-N-(1-(4-(3-((1-(3-methyloxetane-3-carbonyl)pyrrolidin-3-yl)amino)-1H-pyrazolo[3,4-b]pyridin-4-yl)phenyl)cyclopropyl)-1,2,4-oxadiazole-3-carboxamide] | 254 | – | 39 | 6750
O=C(NCc1ccc(-c2ccnc3[nH]nc(N[C@@H]4CCNC4)c23)cc1F)c1ccccc1 [Compound 31, (R)—N-(2-fluoro-4-(3-(pyrrolidin-3-ylamino)-1H-pyrazolo[3,4-b]pyridin-4-yl)benzyl)benzamide] | > 10000 | 6410 | – | 1710
Cc1ccc(C(=O)NCc2ccc(-c3ccnc4[nH]nc(N[C@@H]5CCNC5)c34)cc2F)cc1 [Compound 32, (R)—N-(2-fluoro-4-(3-(pyrrolidin-3-ylamino)-1H-pyrazolo[3,4-b]pyridin-4-yl)benzyl)-4-methylbenzamide] | 328 | 5440 | 17 | 1410
C=CC(=O)N1CC[C@@H](Nc2n[nH]c3nccc(-c4ccc(CNC(=O)c5ccccc5)c(F)c4)c23)C1 [Compound 33, (R)—N-(4-(3-((1-acryloylpyrrolidin-3-yl)amino)-1H-pyrazolo[3,4-b]pyridin-4-yl)-2-fluorobenzyl)benzamide] | 15 | 217 | 14 | 25
C=CC(=O)N1CC[C@@H](Nc2n[nH]c3nccc(-c4ccc(CNC(=O)c5ccc(C)cc5)c(F)c4)c23)C1 [Compound 34, (R)—N-(4-(3-((1-acryloylpyrrolidin-3-yl)amino)-1H-pyrazolo[3,4-b]pyridin-4-yl)-2-fluorobenzyl)-4-methylbenzamide] | 1.76 | 55 | 31 | 16
O=C(NCc1ccc(-c2ccnc3[nH]nc(N[C@@H]4CCNC4)c23)cc1F)c1ccc(C2CC2)cc1 [Compound 35, 4-cyclopropyl-N-{[2-fluoro-4-(3-{[(3R)-pyrrolidin-3-yl]amino}-1H-pyrazolo[3,4-b]pyridin-4-yl)phenyl]methyl}benzamide] | 505 | 7000 | 14 | 8480
CC(C)(C)c1ccc2c(c1)CCN(Cc1ccc(-c3ccnc4[nH]nc(N[C@@H]5CCNC5)c34)cc1F)C2=O [Compound 36, 6-tert-butyl-2-{[2-fluoro-4-(3-{[(3R)-pyrrolidin-3-yl]amino}-1H-pyrazolo[3,4-b]pyridin-4-yl)phenyl]methyl}-1,2,3,4-tetrahydroisoquinolin-1-one] | 433 | > 10000 | >100 | > 10000
CC(C)(C)c1ccc(C(=O)NCc2ccc(-c3ccnc4[nH]nc(N[C@H]5CCNC5)c34)cc2F)cc1 [Compound 37, 4-tert-butyl-N-{[2-fluoro-4-(3-{[(3S)-pyrrolidin-3-yl]amino}-1H-pyrazolo[3,4-b]pyridin-4-yl)phenyl]methyl}benzamide] | 53.9 | > 10000 | >100 | 8820
